According to patent publication US9580390B2, “Indazole compounds as kinase inhibitors and method of treating cancer with same” (University Health Network, priority 2011, dated 2017):

How the values were obtained:
human TTK = biological target: T1, human TTK (Homo sapiens, UniProt P33981); test: TTK inhibition assay (indirect ELISA); type: biochemical; conditions: read-out: TTK IC50 Range
T1 construct: amino terminal GST fusion of full length human TTK; purchased Invitrogen
T1 sequence (P33981 1-857): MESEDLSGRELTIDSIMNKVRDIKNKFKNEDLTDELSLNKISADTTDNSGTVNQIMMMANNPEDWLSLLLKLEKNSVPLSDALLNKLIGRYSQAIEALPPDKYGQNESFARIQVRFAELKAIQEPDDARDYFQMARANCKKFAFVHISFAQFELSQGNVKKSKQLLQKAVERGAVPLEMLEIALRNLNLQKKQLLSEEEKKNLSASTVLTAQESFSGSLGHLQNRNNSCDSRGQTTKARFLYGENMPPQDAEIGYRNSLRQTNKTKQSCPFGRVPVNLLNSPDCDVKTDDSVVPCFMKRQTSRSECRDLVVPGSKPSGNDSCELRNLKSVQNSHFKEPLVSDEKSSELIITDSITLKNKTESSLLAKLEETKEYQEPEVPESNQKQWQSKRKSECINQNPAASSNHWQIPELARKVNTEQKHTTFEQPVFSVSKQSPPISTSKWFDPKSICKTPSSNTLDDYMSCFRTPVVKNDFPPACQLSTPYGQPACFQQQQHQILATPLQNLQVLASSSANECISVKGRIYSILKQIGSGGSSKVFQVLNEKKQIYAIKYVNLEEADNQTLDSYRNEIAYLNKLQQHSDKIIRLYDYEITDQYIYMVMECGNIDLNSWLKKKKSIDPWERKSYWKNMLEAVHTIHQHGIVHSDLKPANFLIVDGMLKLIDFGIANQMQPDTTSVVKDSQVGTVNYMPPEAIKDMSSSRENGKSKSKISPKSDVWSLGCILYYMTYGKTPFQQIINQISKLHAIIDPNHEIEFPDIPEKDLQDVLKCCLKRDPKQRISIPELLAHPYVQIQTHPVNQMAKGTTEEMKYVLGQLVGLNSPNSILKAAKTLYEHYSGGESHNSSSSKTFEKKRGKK
Protocol: Active TTK was purchased from Invitrogen as an amino terminal GST fusion of full length human TTK. Amino terminal 6 histidine, sumo tagged human TTK (residues 1-275) was expressed in E. coli, and purified to >95% homogeneity by Ni^2+ agarose, gel filtration, and ion exchange chromatography.
TTK activity was measured using an indirect ELISA detection system. GST-TTK (0.68 nM) was incubated in the presence of 16 μM ATP (Sigma cat# A7699), 50 mM Hepes pH 7.2, 1 mM EGTA, 10 mM MgCl2, and 0.1% Pluronic in a 96 well microtitre plate pre-coated with amino terminal 6 histidine, sumo tagged TTK (amino acid residues 1-275). The reaction was allowed to proceed for 30 minutes, followed by 5 washes of the plate with Wash Buffer (phosphate buffered saline supplemented with 0.2% Tween 20), and incubation for 30 minutes with a 1:3000 dilution of primary antibody (Cell Signaling cat# 9381). The plate was washed 5 times with Wash Buffer, incubated for 30 minutes in the presence of secondary antibody coupled to horse radish peroxidase (BioRad cat# 1721019, 1:3000 concentration), washed an additional 5 times with Wash Buffer, and incubated in the presence of TMB substrate (Sigma cat# T0440). The colourimetric reaction was allowed to continue for 5 minutes, followed by addition of stop solution (0.5 N sulphuric acid), and quantified by detection at 450 nm with either a monochromatic or filter based plate reader (Molecular Devices M5 or Beckman DTX880, respectively).
Compounds were pre-incubated in the presence of enzyme for 5 minutes prior to addition of ATP and the activity remaining quantified using the above described activity assay. The % Inhibition of a compound was determined using the following formula: % Inhibition=100×(1−(experimental value−background value)/(high activity control−background value)). The IC50 value was determined using a non-linear 4 point logistic curve fit (XLfit4, IDBS) with the formula: (A+(B/(1+((x/C)^D)))), where A=background value, B=range, C=inflection point, D=curve fit parameter.

TICs (Colon 12) = test: Colon tumor-initiating cell growth inhibition (Alamar Blue); type: cell-based; conditions: 216 h; Colon 12 TICs, 9 days; read-out: Tumor Initiating Cell GI50 Range Colon 12
Breast cancer cells = test: Cancer cell line growth inhibition (SRB assay); type: cell-based; conditions: Homo sapiens; MDA-MB-468; read-out: Cancer Cell Line GI50 Range MDA-MB-468
TICs (Ovarian 2393A) = test: Ovarian tumor-initiating cell growth inhibition (Alamar Blue); type: cell-based; conditions: 144 h; Ovarian 2393A TICs, 6 days; read-out: Tumor Initiating Cell GI50 Range Ovarain 2393A
[1] = system: ovarian cancer cells (PA-1); test: Cancer cell line growth inhibition (SRB assay); type: cell-based; conditions: Homo sapiens, PA-1; read-out: Cancer Cell Line GI50 Range PA-1
[2] = system: colon cancer cells (HCT116); test: Cancer cell line growth inhibition (SRB assay); type: cell-based; conditions: Homo sapiens, HCT-116; read-out: Cancer Cell Line GI50 Range HCT116
Protocol: Breast cancer cells (MDA-MB-231), colon cancer cells (HCT116) and ovarian cancer cells (PA-1) were seeded (1000 to 4000 in 80 μl per well depending on the cell growth rate) into 96 well plates 24 hours before compound overlay. Compounds were prepared as 10 mM stock solutions in 100% DMSO which were diluted with DMEM (Dulbecco's Modified Eagle's Medium) cell growth Medium (Invitrogen, Burlington, ON, Canada) containing 10% FBS (Fetal Bovine Serum) to concentrations ranging from 50 nM to 250 μM. Aliquots (20 μl) from each concentration were overlaid to 80 μl of the pre-seeded cells in the 96 well plates to make final concentrations of 10 nM to 50 μM. The cells were cultured for 5 days before the Sulforhodamine B assay (SRB) was performed to determine the compound's cell growth inhibition activity.
Sulforhodamine B (purchased from Sigma, Oakville, ON, Canada) is a water-soluble dye that binds to the basic amino acids of the cellular proteins. Thus, colorimetric measurement of the bound dye provides an estimate of the total protein mass that is related to the cell number. the cells are fixed in situ by gently aspirating off the culture media and adding 50 μl ice cold 10% Trichloroacetic Acid (TCA) per well and incubate at 4° C. for 30-60 min. The plates are washed with H2O five times and allowed to air dry for 5 min. Addition of 50 μl 0.4% (w/v) SRB solution in 1% (v/v) acetic acid to each well and incubation for 30 min at RT completes the staining reaction. Following staining, plates are washed four times with 1% acetic acid to remove unbound dye and then allowed to air dry for 5 min. The stain is solubilized with 100 μl of 10 mM Tris pH 10.5 per well. Absorbance is read at 570 nm.
The percentage (%) of relative growth inhibition was calculated by comparing to DMSO treated only cells (100%). GI50's were determined for compounds with cytotoxic activity. The GI50 was calculated using GraphPad PRISM software (GraphPad Software, Inc., San Diego, Calif., USA).

Compound | IC50 (human TTK) | GI50 (TICs (Colon 12)) | GI50 (Breast cancer cells) | GI50 (TICs (Ovarian 2393A)) | GI50 [1] | GI50 [2]
CC(C)C[C@H](NC(=O)c1ccc2[nH]nc(-c3ccc(N4[C@@H]5CC[C@H]4COC5)cc3)c2c1)c1ccccn1 [Example A303, 3-(4-((1R,5S)-3-oxa-8-azabicyclo[3.2.1]octan-8-yl)phenyl)-N-((S)-3-methyl-1-(pyridin-2-yl)butyl)-1H-indazole-5-carboxamide] | < 100 nM | < 100 nM | < 100 nM | < 100 nM | < 100 nM | < 100 nM
O=C(N[C@H](c1ccccn1)C1CCCC1)c1ccc2[nH]nc(-c3ccc(N4CC(C5COC5)C4)cc3)c2c1 [Example A309, (S)-N-(cyclopentyl(pyridin-2-yl)methyl)-3-(4-(3-(oxetan-3-yl)azetidin-1-yl)phenyl)-1H-indazole-5-carboxamide] | < 100 nM | < 100 nM | < 100 nM | < 100 nM | < 100 nM | < 100 nM
CC(C)[C@H](NC(=O)c1ccc2[nH]nc(-c3ccc(N4CC(C5COC5)C4)cc3)c2c1)c1ccccc1Cl [Example A310, (S)-N-(1-(2-chlorophenyl)-2-methylpropyl)-3-(4-(3-(oxetan-3-yl)azetidin-1-yl)phenyl)-1H-indazole-5-carboxamide] | < 100 nM | < 100 nM | < 100 nM | < 100 nM | < 100 nM | < 100 nM
O=C(N[C@H](c1ccccn1)C1CC1)c1ccc2[nH]nc(-c3ccc(N4CC(C5COC5)C4)cc3)c2c1 [Example A311, (S)-N-(cyclopropyl(pyridin-2-yl)methyl)-3-(4-(3-(oxetan-3-yl)azetidin-1-yl)phenyl)-1H-indazole-5-carboxamide] | < 100 nM | < 100 nM | < 100 nM | < 100 nM | < 100 nM | < 100 nM
CC(C)C[C@H](NC(=O)c1ccc2[nH]nc(-c3ccc(N4CC(N5CCOCC5)C4)cc3)c2c1)c1ccccc1Cl [Example A315, (S)-N-(1-(2-chlorophenyl)-3-methylbutyl)-3-(4-(3-morpholinoazetidin-1-yl)phenyl)-1H-indazole-5-carboxamide] | < 100 nM | < 100 nM | 100 to 500 nM | 100 to 500 nM | < 100 nM | < 100 nM
O=C(NC(c1ccccc1)C1CC1)c1ccc2[nH]nc(-c3ccc(O[C@H]4C[C@H]5CC[C@@H](C4)N5C4COC4)cc3)c2c1 (stereo partly drawn) [Example A321, N-(cyclopropyl(phenyl)methyl)-3-(4-(((1R,3R,5S)-8-(oxetan-3-yl)-8-azabicyclo[3.2.1]octan-3-yl)oxy)phenyl)-1H-indazole-5-carboxamide] | < 100 nM | < 100 nM | 100 to 500 nM | 100 to 500 nM | 100 to 500 nM | 100 to 500 nM
CC(C)C(NC(=O)c1ccc2[nH]nc(-c3ccc(O[C@H]4C[C@H]5CC[C@@H](C4)N5C4COC4)cc3)c2c1)c1ccccn1 (stereo partly drawn) [Example A325, N-(2-methyl-1-(pyridin-2-yl)propyl)-3-(4-(((1R,3R,5S)-8-(oxetan-3-yl)-8-azabicyclo[3.2.1]octan-3-yl)oxy)phenyl)-1H-indazole-5-carboxamide] | < 100 nM | < 100 nM | 100 to 500 nM | 100 to 500 nM | 100 to 500 nM | 100 to 500 nM
O=C(NC(c1ccsc1)C1CCC1)c1ccc2[nH]nc(-c3ccc(O[C@H]4C[C@H]5CC[C@@H](C4)N5C4COC4)cc3)c2c1 (stereo partly drawn) [Example A326, N-(cyclobutyl(thiophen-3-yl)methyl)-3-(4-(((1R,3R,5S)-8-(oxetan-3-yl)-8-azabicyclo[3.2.1]octan-3-yl)oxy)phenyl)-1H-indazole-5-carboxamide] | < 100 nM | < 100 nM | 100 to 500 nM | < 100 nM | 100 to 500 nM | 100 to 500 nM
CC(C)CC(NC(=O)c1ccc2[nH]nc(-c3ccc(O[C@H]4C[C@H]5CC[C@@H](C4)N5C=O)cc3)c2c1)c1ccccn1 (stereo partly drawn) [Example A339] | < 100 nM | < 100 nM | < 100 nM | < 100 nM | < 100 nM | < 100 nM
CCC[C@H](NC(=O)c1ccc2[nH]nc(-c3ccc(OC4CC5CCC(C4)N5C=O)cc3)c2c1)c1ccccc1 (stereo partly drawn) [Example A343, 3-(4-(((1R,3R,5S)-8-formyl-8-azabicyclo[3.2.1]octan-3-yl)oxy)phenyl)-N-((S)-1-phenylbutyl)-1H-indazole-5-carboxamide] | < 100 nM | < 100 nM | 100 to 500 nM | 100 to 500 nM | < 100 nM | < 100 nM
CC(C)[C@H](NC(=O)c1ccc2[nH]nc(-c3ccc(N4C5CCC4CC(O)C5)cc3)c2c1)c1ccccc1Cl (stereo partly drawn) [Example A356, N-((S)-1-(2-chlorophenyl)-2-methylpropyl)-3-(4-((1R,3S,5S)-3-hydroxy-8-azabicyclo[3.2.1]octan-8-yl)phenyl)-1H-indazole-5-carboxamide] | < 100 nM | < 100 nM | < 100 nM | < 100 nM | < 100 nM | < 100 nM
O=C(N[C@H](c1ccccn1)C1CCCC1)c1ccc2[nH]nc(-c3ccc(N4C5CCC4CC(O)C5)cc3)c2c1 (stereo partly drawn) [Example A360, N-((S)-cyclopentyl(pyridin-2-yl)methyl)-3-(4-((1R,3S,5S)-3-hydroxy-8-azabicyclo[3.2.1]octan-8-yl)phenyl)-1H-indazole-5-carboxamide] | < 100 nM | < 100 nM | < 100 nM | < 100 nM | < 100 nM | < 100 nM
O=C(N[C@H](c1ccccc1)C1CC1)c1ccc2[nH]nc(-c3ccc(N4C5CCC4CC(O)C5)cc3)c2c1 (stereo partly drawn) [Example A362, N-((S)-cyclopropyl(phenyl)methyl)-3-(4-((1R,3S,5S)-3-hydroxy-8-azabicyclo[3.2.1]octan-8-yl)phenyl)-1H-indazole-5-carboxamide] | < 100 nM | < 100 nM | < 100 nM | < 100 nM | < 100 nM | < 100 nM
CC(C)C[C@H](NC(=O)c1ccc2[nH]nc(-c3ccc(N4C5CCC4CC(O)C5)cc3)c2c1)c1ccccc1 (stereo partly drawn) [Example A368, 3-(4-((1R,3S,5S)-3-hydroxy-8-azabicyclo[3.2.1]octan-8-yl)phenyl)-N-((S)-3-methyl-1-phenylbutyl)-1H-indazole-5-carboxamide] | < 100 nM | < 100 nM | 100 to 500 nM | 100 to 500 nM | < 100 nM | < 100 nM
O=C(N[C@H](c1ccccn1)C1CCCC1)c1ccc2[nH]nc(-c3ccc(N4CCCN(C5COC5)CC4)cc3)c2c1 [Example A370, (S)-N-(cyclopentyl(pyridin-2-yl)methyl)-3-(4-(4-(oxetan-3-yl)-1,4-diazepan-1-yl)phenyl)-1H-indazole-5-carboxamide] | < 100 nM | < 100 nM | < 100 nM | 100 to 500 nM | < 100 nM | < 100 nM
CN1C2CCC1CC(Oc1ccc(-c3n[nH]c4ccc(C(=O)N[C@H](c5ccccc5)C5CC5)cc34)cc1)C2 (stereo partly drawn) [Example A376, N-((S)-cyclopropyl(phenyl)methyl)-3-(4-(((1R,3R,5S)-8-methyl-8-azabicyclo[3.2.1]octan-3-yl)oxy)phenyl)-1H-indazole-5-carboxamide] | < 100 nM | 100 to 500 nM | 100 to 500 nM | 100 to 500 nM | < 100 nM | < 100 nM
CN1C2CCC1CC(Oc1ccc(-c3n[nH]c4ccc(C(=O)N[C@@H](c5ccccc5)C5CC5)cc34)cc1)C2 (stereo partly drawn) [Example A378, N-((R)-cyclopropyl(phenyl)methyl)-3-(4-(((1R,3R,5S)-8-methyl-8-azabicyclo[3.2.1]octan-3-yl)oxy)phenyl)-1H-indazole-5-carboxamide] | < 100 nM | 100 to 500 nM | 100 to 500 nM | 100 to 500 nM | < 100 nM | < 100 nM
CN1CCC(Oc2ccc(-c3n[nH]c4ccc(C(=O)N[C@@H](c5ccccn5)C5CC5)cc34)cc2Cl)CC1 [Example A386, (R)-3-(3-chloro-4-((1-methylpiperidin-4-yl)oxy)phenyl)-N-(cyclopropyl(pyridin-2-yl)methyl)-1H-indazole-5-carboxamide] | < 100 nM | 100 to 500 nM | > 500 nM | > 500 nM | 100 to 500 nM | 100 to 500 nM
